Results as given in patent US20220257704A1, “COMBINATION OF CHEMOTHERAPY WITH RECOMBINANT S. ROLFSII LECTIN” (Unichem Laboratories Ltd, priority 2018, published 2022).
Like-named read-outs stand apart in the source and are kept apart here.

What was measured:
Test in all cases: MTT cytotoxicity assay, 48 h, alone and in combination (IC50 and Combination Index)
Type in all cases: cell-based
KB cell line = system: KB cell line
Experimental: A study was performed to determine the effect of the concentration of the recombinant lectin represented by SEQ ID NO: 1 on the IC50 of5-FU for cytotoxicity in KB cells.
Similarly another study was performed for Cisplatin in combination with the recombinant lectin of SEQ ID NO: 1.
Similarly another set of cells were treated with Cisplatin(0.1 μM to 1.5 μM)in combination with SEQ ID NO: 1(5.0 μg/mL-90 μg/mL).

PA-1 cell line = details: read-out: IC50 of Cisplatin
Experimental: In a further study, PA-1 cells were treated with Cisplatin(0.01 μM-5 μM) in combination with SEQ ID NO: 1(1 μg/mL-20 μg/mL) for 48 h. Similarly another set of cells were treated with Paclitaxel (0.01 nM-5 nM) in combination with SEQ ID NO: 1 (1 μg/mL-20 μg/mL).

T24 cell line = details: for Conc. of other therapeutic agents showing synergistic effect: paired with SEQ ID NO: 1 conc.
Experimental: The cell were kept in contact with the recombinant lectin of SEQ ID NO: 1 and the chemotherapy agent for 48 h and the cytotoxic effect (percentage cytotoxicity) was measured. The cytotoxic effect was determined by well-known colorimetric MTT assay (Mossman, T. 1983 Rapid colorimetric assay for cellular growth and survival: application to proliferation and cytotoxicity assays Journal of Immunological Methods, volume 65, pages 55-63) for assessing cell metabolic activity.
Based on percentage cytotoxicity data, IC50 values were determined using the software GraphPad Prism version 4.01.
(§1) Combination Index (CI) values were determined for each drug concentration combination. The CI values were calculated based on the IC50 values using the formula as given in below.
A study was performed to determine the effect of the concentration of the recombinant lectin represented by SEQ ID NO: 1 on the IC50 of Cisplatin for cytotoxicity in T24 cells. Conversely the effect of the concentration of Cisplatin on the IC50 of the recombinant lectin represented by SEQ ID NO: 1.
Similarly another study was performed for Gemcitabine in combination with the recombinant lectin of SEQ ID NO: 1.
This was performed using the same techniques as in Example 1-1.
In a further study, T24 cells were treated with Cisplatin (1 μM-500 μM) in combination with SEQ ID NO: 1(2.5 μg/mL-80 μg/mL) for 48 h. Similarly another set of cells were treated with Gemcitabine (1 μM-300 μM) in combination with SEQ ID NO: 1 (2.5 μg/mL-80 μg/mL). Combination Index values were determined for each drug combination and resultant antagonistic, additive or synergistic effect was determined, as described in Example 1-2.

PANC-1 cell line = details: Homo sapiens
Experimental: The cytotoxic effect on each combination was determined by MTT assay.
as §1

HT-29 cell line = details: Homo sapiens
[1] = SEQ ID NO: 1 at 0 μg/mL, read-out: IC50 of Cisplatin
[2] = SEQ ID NO: 1 at 5 μg/mL, read-out: IC50 of Cisplatin
[3] = SEQ ID NO: 1 at 10 μg/mL, read-out: IC50 of Cisplatin
[4] = SEQ ID NO: 1 at 20 μg/mL, read-out: IC50 of Cisplatin
[5] = SEQ ID NO: 1 at 40 μg/mL, read-out: IC50 of Cisplatin

Molecule `N.N.[Cl][Pt][Cl]` [Cisplatin, reference compound] has an IC50 (KB cell line; [1]) of 722 nM, an IC50 (KB cell line; [2]) of 375 nM and an IC50 (KB cell line; [3]) of 269 nM. It also gave an IC50 (KB cell line; [4]) of 134 nM, an IC50 (KB cell line; SEQ ID NO: 1 at 30 μg/mL, read-out: IC50 of Cisplatin) of 66.2 nM and an IC50 (KB cell line; [5]) of 7.12 nM. For the same molecule, the IC50 (KB cell line; SEQ ID NO: 1 at 90 μg/mL, read-out: IC50 of Cisplatin) was 9.93 nM, the IC50 (PA-1 cell line; SEQ ID NO: 1 at 1 μg/mL) was 716 nM and the IC50 (PA-1 cell line; SEQ ID NO: 1 at 5 μg/mL) was 93 nM. The IC50 (PA-1 cell line; SEQ ID NO: 1 at 10 μg/mL) was 4.2 nM, the IC50 (PA-1 cell line; SEQ ID NO: 1 at 15 μg/mL) was 0.5 nM and the IC50 (PA-1 cell line; SEQ ID NO: 1 at 20 μg/mL) was 0.1 nM. For the same molecule, the IC50 (PA-1 cell line; SEQ ID NO: 1 at […]) was 314 nM, the “Conc. of other therapeutic agents showing synergistic effect” value (T24 cell line; Cisplatin with SEQ ID NO: 1) was 1 to 500 µM and the IC50 (T24 cell line; [1]) was 39000 nM. It also gave an IC50 (T24 cell line; [2]) of 3800 nM, an IC50 (T24 cell line; [3]) of 97.1 nM and an IC50 (T24 cell line; [4]) of 34.4 nM. For the same molecule, the IC50 (T24 cell line; [5]) was 83.6 nM, the IC50 (T24 cell line; SEQ ID NO: 1 at 80 μg/mL, read-out: IC50 of Cisplatin) was 13.4 nM and the IC50 (T24 cell line; SEQ ID NO: 1 at […], read-out: IC50 of Cisplatin) was 22900 nM.

`O=c1[nH]cc(F)c(=O)[nH]1` [5-FU, 5-Fluorouracil, reference compound] showed an IC50 (PANC-1 cell line; PANC-1, read-out: IC50 of 5-FU, SEQ ID NO: 1 at 0 μg/mL) of 87000 nM, an IC50 (PANC-1 cell line; PANC-1, read-out: IC50 of 5-FU, SEQ ID NO: 1 at 5 μg/mL) of 1410 nM and an IC50 (PANC-1 cell line; PANC-1, read-out: IC50 of 5-FU, SEQ ID NO: 1 at 10 μg/mL) of 1260 nM. It also gave an IC50 (PANC-1 cell line; PANC-1, read-out: IC50 of 5-FU, SEQ ID NO: 1 at 20 μg/mL) of 869 nM, an IC50 (PANC-1 cell line; PANC-1, read-out: IC50 of 5-FU, SEQ ID NO: 1 at 40 μg/mL) of 8450 nM and an IC50 (PANC-1 cell line; PANC-1, read-out: IC50 of 5-FU, SEQ ID NO: 1 at 80 μg/mL) of 725 nM. The IC50 (PANC-1 cell line; PANC-1, read-out: IC50 of 5-FU, SEQ ID NO: 1 at […]) was 297000 nM, the “Conc. of other therapeutic agents showing synergistic effect” value (KB cell line; 5-FU with SEQ ID NO: 1, paired with SEQ ID NO: 1 conc.) was 0.01 to 5 µM and the IC50 (KB cell line; Homo sapiens, KB, read-out: IC50 of 5-FU, SEQ ID NO: 1 at 0 μg/mL) was 15 nM. It also gave an IC50 (KB cell line; Homo sapiens, KB, read-out: IC50 of 5-FU, SEQ ID NO: 1 at 5 μg/mL) of 0.1 nM, an IC50 (KB cell line; Homo sapiens, KB, read-out: IC50 of 5-FU, SEQ ID NO: 1 at 10 μg/mL) of 0.00531 nM and an IC50 (KB cell line; Homo sapiens, KB, read-out: IC50 of 5-FU, SEQ ID NO: 1 at 20 μg/mL) of 0.0134 nM. The IC50 (KB cell line; Homo sapiens, KB, read-out: IC50 of 5-FU, SEQ ID NO: 1 at 30 μg/mL) was 0.00119 nM, the IC50 (HT-29 cell line; HT-29, read-out: IC50 of 5-FU, SEQ ID NO: 1 at 0 μg/mL) was 137000 nM and the IC50 (HT-29 cell line; HT-29, read-out: IC50 of 5-FU, SEQ ID NO: 1 at 1 μg/mL) was 173000 nM. The IC50 (HT-29 cell line; HT-29, read-out: IC50 of 5-FU, SEQ ID NO: 1 at 5 μg/mL) was 25900 nM, the IC50 (HT-29 cell line; HT-29, read-out: IC50 of 5-FU, SEQ ID NO: 1 at 10 μg/mL) was 4510 nM and the IC50 (HT-29 cell line; HT-29, read-out: IC50 of 5-FU, SEQ ID NO: 1 at 20 μg/mL) was 282 nM. For the same molecule, the IC50 (HT-29 cell line; HT-29, read-out: IC50 of 5-FU, SEQ ID NO: 1 at 40 μg/mL) was 1240 nM and the IC50 (HT-29 cell line; HT-29, read-out: IC50 of 5-FU, SEQ ID NO: 1 at 80 μg/mL) was 4880 nM.

With `Nc1ccn([C@@H]2O[C@H](CO)[C@@H](O)C2(F)F)c(=O)n1` [Gemcitabine, reference compound] the IC50 (PANC-1 cell line; PANC-1, SEQ ID NO: 1 at 0 μg/mL, read-out: IC50 of Gemcitabine) was 7410 nM, the IC50 (PANC-1 cell line; PANC-1, SEQ ID NO: 1 at 5 μg/mL, read-out: IC50 of Gemcitabine) was 10800 nM and the IC50 (PANC-1 cell line; PANC-1, SEQ ID NO: 1 at 10 μg/mL, read-out: IC50 of Gemcitabine) was 3040 nM. The IC50 (PANC-1 cell line; PANC-1, SEQ ID NO: 1 at 20 μg/mL, read-out: IC50 of Gemcitabine) was 39 nM, the IC50 (PANC-1 cell line; PANC-1, SEQ ID NO: 1 at 40 μg/mL, read-out: IC50 of Gemcitabine) was 38 nM and the IC50 (PANC-1 cell line; PANC-1, SEQ ID NO: 1 at 80 μg/mL, read-out: IC50 of Gemcitabine) was 10600 nM. For the same molecule, the IC50 (PANC-1 cell line; PANC-1, SEQ ID NO: 1 at […], read-out: IC50 of Gemcitabine) was 15900 nM, the “Conc. of other therapeutic agents showing synergistic effect” value (T24 cell line; Gemcitabine with SEQ ID NO: 1) was 1 to 300 µM and the IC50 (T24 cell line; Homo sapiens, T-24, SEQ ID NO: 1 at 0 μg/mL, read-out: IC50 of Gemcitabine) was 15400 nM. The IC50 (T24 cell line; Homo sapiens, T-24, SEQ ID NO: 1 at 5 μg/mL, read-out: IC50 of Gemcitabine) was 141 nM, the IC50 (T24 cell line; Homo sapiens, T-24, SEQ ID NO: 1 at 10 μg/mL, read-out: IC50 of Gemcitabine) was 0.32 nM and the IC50 (T24 cell line; Homo sapiens, T-24, SEQ ID NO: 1 at 20 μg/mL, read-out: IC50 of Gemcitabine) was 0.02 nM. For the same molecule, the IC50 (T24 cell line; Homo sapiens, T-24, SEQ ID NO: 1 at […], read-out: IC50 of Gemcitabine) was 802 nM.
